Measurements published in paper PMC10758095, “Selectively targeting BCL6 using a small molecule inhibitor is a potential therapeutic strategy for ovarian cancer” (International Journal of Biological Sciences, 2024).

Target: T1, BCL6 (Homo sapiens, UniProt P41182)
T1 construct: BTB domain
Test: SPR (also HTRF BCL6-BTB/SMRT disruption)
Format: binding

Question: Which Kd does the source give for C[C@@H]1CN(c2ncc(F)c(Nc3ccc4oc(=O)ccc4c3)n2)C[C@H](C)N1 [WK369] here?
Answer: 2240 nM
